One experiment has as its system isocitrate lyase (ICL). The conditions noted are these: under glucose deprived conditions; cited from earlier work.
For experiment [1], the system named is murine bone marrow derived macrophages (BMDM). Kind of experiment: Cytokine quantification in stimulated bone marrow derived macrophages. Type of experiment: cell-based, C57BL/6 mice. The conditions noted are these: 12 hr pretreatment, then LPS or LPS+IFNγ 12 hr; vs PLGA and insert free controls. As to the method: For experiments, cells were seeded at 90 000 cells cm^−2 in 6 well culture plates. […] Unstimulated cells treated with identical groups were used as a negative control.
Cytokine quantification was conducted on cell supernatants using a mouse 10-plex pro-inflammatory assay or an interferon beta single plex assay (Eve Technologies, Calgary, AB) and calculated using their standard curve. Nitrite content was determined using a Greiss Reagent Kit.

The next experiment relates to Escherichia coli (BL21). Nature of the experiment: In vitro E. coli bacterial growth assessment (optical density 600 nm). In kind it is cell-based. The note with it: soluble; rich media (LB broth). As to the method: Escherichia coli (BL21) was expanded overnight in LB broth, then seeded (1:100) in fresh medium according to growth conditions. Experiments were carried out in modified M9 minimal medium supplemented with appropriate carbon source (Acetate: 1%, Glucose 0.4%) or LB broth (Lennox). Time course assessment of soluble small molecule inhibition was conducted in 96-well culture plates fitted with a breathable film to encourage aeration and cultured for indicated time with incremental optical density measurement (600 nm). Growth media containing solubilized acid was neutralized with sodium hydroxide (pH=7.0).
To determine polymer antimicrobial properties in solution, six well plates were cast with equal mass polymer samples and polymer free culture plate (polystyrene) controls. […] Silver nanoparticles (10 nm) and PLLA (Mn=85-110 kDa, Sigma) were used as positive and negative controls respectively. Soluble assessment of DMI was conducted using the method described for polymer samples using a 12 well plate format (1.5 mL/well).

Data on two molecules can be found in patent US11666598B2 (priority 2019, dated 2023).

Consider `C=C(CC(=O)O)C(=O)O` [ITA, itaconic acid], for which the “inhibition of isocitrate lyase (ICL)” value in the experiment on isocitrate lyase (ICL) is listed as “potent inhibitor”. In the case of `C=C(CC(=O)OC)C(=O)OC` [DMI, dimethyl itaconate], the IL-6 entry in experiment [1] is given as “marked”. Moreover, the “concentration showing sensitivity on rich media” value with Escherichia coli (BL21) is recorded as more than 7.5 mM.
